From article PMC7250897, “UDP-glucosyltransferase regulates grain size and abiotic stress tolerance associated with metabolic flux redirection in rice” (Nature Communications, 2020)

T1: GSA1^WYJ (Oryza sativa, UniProt Q9AUV3, A246V)
T1 construct: gene Os03g0757500; full-length cDNA in pET21a (NdeI/NotI), E. coli BL21(DE3) pLysS, crude extract; WYJ allele A246, A349
T1 sequence (Q9AUV3 1-457 A246V): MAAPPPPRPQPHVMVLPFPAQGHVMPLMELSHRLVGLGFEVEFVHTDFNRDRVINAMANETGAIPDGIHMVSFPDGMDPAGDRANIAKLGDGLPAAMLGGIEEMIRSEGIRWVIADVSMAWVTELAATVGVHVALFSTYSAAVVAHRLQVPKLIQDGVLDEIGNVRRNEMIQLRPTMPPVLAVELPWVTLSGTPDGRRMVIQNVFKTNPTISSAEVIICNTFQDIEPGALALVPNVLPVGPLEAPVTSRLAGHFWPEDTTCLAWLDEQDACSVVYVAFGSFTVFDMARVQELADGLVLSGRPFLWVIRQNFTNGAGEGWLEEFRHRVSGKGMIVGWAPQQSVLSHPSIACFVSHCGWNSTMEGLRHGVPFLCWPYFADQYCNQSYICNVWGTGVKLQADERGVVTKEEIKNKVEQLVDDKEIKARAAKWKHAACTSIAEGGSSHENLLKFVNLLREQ

T2: GSA1^WYJ (Oryza sativa, UniProt Q9AUV3, A349T)
T2 construct: gene Os03g0757500; full-length cDNA in pET21a (NdeI/NotI), E. coli BL21(DE3) pLysS, crude extract; WYJ allele A246, A349
T2 sequence (Q9AUV3 1-457 A349T): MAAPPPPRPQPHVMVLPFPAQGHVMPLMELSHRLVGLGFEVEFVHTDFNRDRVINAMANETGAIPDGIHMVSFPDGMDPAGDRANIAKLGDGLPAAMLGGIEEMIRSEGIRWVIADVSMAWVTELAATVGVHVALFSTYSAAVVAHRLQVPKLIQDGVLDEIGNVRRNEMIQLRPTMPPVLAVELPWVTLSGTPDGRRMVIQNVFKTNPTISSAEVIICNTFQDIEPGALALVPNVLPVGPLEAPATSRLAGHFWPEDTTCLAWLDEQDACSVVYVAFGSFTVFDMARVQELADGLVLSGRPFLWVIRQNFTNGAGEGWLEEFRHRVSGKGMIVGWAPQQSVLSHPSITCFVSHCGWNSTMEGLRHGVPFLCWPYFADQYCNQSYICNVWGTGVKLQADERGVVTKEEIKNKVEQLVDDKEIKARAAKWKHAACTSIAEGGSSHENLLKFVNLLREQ

B1: GSA1^WYJ (Oryza sativa Japonica Group) (protein)
chain: MAAPPPPRPQPHVMVLPFPAQGHVMPLMELSHRLVGLGFEVEFVHTDFNRDRVINAMANETGAIPDGIHMVSFPDGMDPAGDRANIAKLGDGLPAAMLGGIEEMIRSEGIRWVIADVSMAWVTELAATVGVHVALFSTYSAAVVAHRLQVPKLIQDGVLDEIGNVRRNEMIQLRPTMPPVLAVELPWVTLSGTPDGRRMVIQNVFKTNPTISSAEVIICNTFQDIEPGALALVPNVLPVGPLEAPATSRLAGHFWPEDTTCLAWLDEQDACSVVYVAFGSFTVFDMARVQELADGLVLSGRPFLWVIRQNFTNGAGEGWLEEFRHRVSGKGMIVGWAPQQSVLSHPSIACFVSHCGWNSTMEGLRHGVPFLCWPYFADQYCNQSYICNVWGTGVKLQADERGVVTKEEIKNKVEQLVDDKEIKARAAKWKHAACTSIAEGGSSHENLLKFVNLLREQ
notes: full-length cDNA in pET21a (NdeI/NotI), E. coli BL21(DE3) pLysS, crude extract; WYJ allele A246, A349

Assays:
GSA1^WYJ [1] = biological target: T1, GSA1^WYJ; test: HPLC glucosyltransferase assay, product peak area; settings: 250 μM acceptor, 1.5 mM UDP-glucose, 10 mM MgCl2, glycine-NaOH pH 8.6, 37 °C, 2 h
GSA1^WYJ [2] = biological target: T2, GSA1^WYJ; test: HPLC glucosyltransferase assay, product peak area; settings: 250 μM acceptor, 1.5 mM UDP-glucose, 10 mM MgCl2, glycine-NaOH pH 8.6, 37 °C, 2 h
[3] = substrate: O=c1c(O)c(-c2ccc(O)cc2)oc2cc(O)cc(O)c12; test: cells, lysate or membranes; settings: sugar acceptor, UDP-glucose as donor, assay buffer 10 mM MgCl2, glycine-NaOH pH 8.6, 37 °C
[4] = substrate: O=c1ccn([C@@H]2O[C@H](CO[P@@](=O)(O)O[P@@](=O)(O)O[C@H]3O[C@H](CO)[C@@H](O)[C@H](O)[C@H]3O)[C@@H](O)[C@H]2O)c(=O)[nH]1; test: HPLC glucosyltransferase assay, kinetics; assay type: biochemical, Oryza sativa; settings: sugar donor, kaempferol as acceptor, 10 mM MgCl2, glycine-NaOH pH 8.6, 37 °C

Molecule | HPLC glucosyltransferase assay, product peak area (GSA1^WYJ [1]) | HPLC glucosyltransferase assay, product peak area (GSA1^WYJ [2]) | Km [3] [µM] | Km [4] [µM]
COc1cc(/C=C/CO)cc(OC)c1O [sinapyl alcohol] | the glucosyltransferase activity of GSA1^A246V toward kaempferol and sinapyl alcohol was comparable | the glucosyltransferase activity of GSA1^A349T was comparable to that of GSA1^CG14 | – | –
O=c1c(O)c(-c2ccc(O)cc2)oc2cc(O)cc(O)c12 [kaempferol] | the glucosyltransferase activity of GSA1^A246V toward kaempferol and sinapyl alcohol was comparable | the glucosyltransferase activity of GSA1^A349T was comparable to that of GSA1^CG14 | – | –
B1 | – | – | 25.54 ± 5.43 | 51.06 ± 7.814
